Measurements from PubChem BioAssay (NCI).
“And” between values parts separate entries of the source, which are not always exact repeats. Identical values can stand only once.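 48-hour exposure; five concentrations; linearly interpolated endpoints. Here, GI50 denotes the concentration required for 50% inhibition of growth. TGI denotes the concentration required for complete inhibition of growth.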

Assays:
Experiment in all cases: NCI tumour cell line growth inhibition, 48 h
[1] = system: RXF-631 renal
[2] = system: KM20L2 colon
[3] = system: HOP-18 NSCLC
[4] = system: DMS 114 small cell lung
[5] = system: M19-MEL melanoma
[6] = system: DMS 273 small cell lung
[7] = system: MDA-N
[8] = system: DLD-1 colon
[9] = system: XF 498 CNS
[10] = system: P388/ADR leukemia
[11] = system: SN12K1 renal

SMILES	TGI [1]	TGI [2]	TGI [3]	TGI [4]	TGI [5]	TGI [6]	TGI [7]	TGI [8]	TGI [9]	also measured
Cc1c(C)c2cc3c(=O)c(CCl)coc3c(C)c2oc1=O	> 100 µM	> 100 µM	> 100 µM	> 100 µM	> 100 µM					
Cn1cc(-c2ccc3c4ccccc4n(C)c3c2)c2ccccc21		> 100 µM	> 100 µM	> 100 µM	> 100 µM					
COc1ccc2nc3cc(Cl)ccc3c(Nc3ccccc3-c3ccccc3Nc3c4ccc(Cl)cc4nc4ccc(OC)cc34)c2c1	> 100 µM	> 81.4 µM	> 100 µM		> 93.3 µM	> 54.9 µM	24.7 µM	> 47.3 µM	> 76.2 µM	
C=CC[P@]1(=O)O[C@H](c2ccccc2)C(C)N1C(C)C (some centres undefined)	> 100 µM	> 100 µM	> 100 µM	> 100 µM	> 100 µM			> 100 µM	> 100 µM	
O=C(O)CCC(O)=C1S(=O)(=O)OCCOS1(=O)=O		> 100 µM	> 100 µM	> 100 µM	> 100 µM	> 100 µM	> 100 µM	> 100 µM		
CCC/C=C/C=C/C(=O)OC1/C(=C/C(=O)OC)CC2CC(C(C)O)OC(=O)CC(O)CC3CC(OC(C)=O)C(C)(C)C(O)(CC4C/C(=C/C(=O)OC)CC(/C=C/C(C)(C)C1(O)O2)O4)O3 (centres undefined)		> 10.9 µM and 11 µM	2.52 µM and 10.8 µM	> 10.9 µM and 8.97 µM	> 10.9 µM and 11 µM	> 10.9 µM and 11 µM	11 µM and > 12.5 µM	> 10.9 µM and 11 µM	11 µM	GI50 [2]: > 10.9 µM and 6.51 µM; TGI [10]: 10.9 µM and 11 µM; GI50 [11]: > 11 µM; TGI [11]: > 11 µM; GI50 [7]: > 12.5 µM; GI50 [3]: 1.76 µM and 6.05 µM; GI50 [4]: > 10.9 µM and 2.92 µM; GI50 [5]: > 10.9 µM and 7.88 µM; GI50 [9]: 4.43 µM
Cc1nc(-n2nc(-c3ccccc3)cc2-c2ccccc2)sc1C(=O)CC(=O)C(=O)Nc1ccc(Cl)c(Cl)c1	> 100 µM	> 100 µM	> 100 µM	> 100 µM	> 100 µM	> 100 µM		> 100 µM		
COc1ccc2c(c1OC)C(=O)C2		> 100 µM	> 100 µM	> 100 µM	> 100 µM	> 100 µM			> 100 µM	
O=C1c2ccccc2C(=O)c2c1ccc1conc21	> 26.5 µM	28.8 µM	26.2 µM	3.42 µM	3.09 µM	8.17 µM	1.41 µM	7.15 µM		
N.N.N.N.N#N.N#N.[Cl-].[Os+6]		> 100 µM	> 100 µM			> 100 µM		> 100 µM		GI50 [6]: > 100 µM; GI50 [2]: > 100 µM; GI50 [3]: 23.1 µM; GI50 [8]: > 100 µM
CC(=O)OC1(Sc2ccccc2)CC2[C@H]3COC(C)(C)O[C@H]3CC[C@@]2(C)CC1=O (some centres undefined)	> 100 µM	> 100 µM		> 100 µM	> 100 µM	> 100 µM		> 100 µM	57.3 µM	
O=C1OC(c2ccc([N+](=O)[O-])cc2)=N/C1=C\c1ccc(Cl)cc1							> 100 µM			
C=CCCC(O)c1cc(C)c(O)c(C)c1 (centres undefined)		> 100 µM	> 100 µM	> 100 µM	> 100 µM					
CC(=O)c1cc2c(Br)cccc2oc1=O							> 100 µM			
CC1=CC(=O)NP(=O)(Oc2ccc(Cl)cc2)N1 (centres undefined)		> 100 µM	> 100 µM	> 100 µM	> 100 µM	> 100 µM		> 100 µM	> 100 µM	
O=S(=O)(F)Cc1ccccc1							> 100 µM			
COc1ccc2c(=O)c(-c3cc(OC)c(OC)cc3OC)coc2c1	> 100 µM			> 24.6 µM	> 100 µM	> 100 µM	> 100 µM	> 100 µM	8.07 µM	
COC(=O)c1csc(-c2csc(CCNC(=O)OC(C)(C)C)n2)n1							> 100 µM			
NC(CSC(c1ccccc1)(c1ccccc1)c1ccccc1)C(=O)O (centres undefined)		5.47 µM	116 µM		117 µM	1.55 µM	12.5 µM	125 µM	7.77 µM	TGI [10]: 125 µM; TGI [11]: 2.21 µM; GI50 [8]: 0.831 µM; GI50 [5]: 5.07 µM; GI50 [9]: 0.711 µM and 0.959 µM
O=CNC(Cc1cnc[nH]1)C(=O)O (centres undefined)							> 100 µM			
